Experimental data published in publication PMC11698612, “Roles of NET Peptides With Known Antimicrobial Activity and Toxicity in Immune Response” (Journal of Immunology Research, 2024).
“Also recorded” adds a separate entry of the source.

Tests used:
[1] = tested on: TIB-71 RAW 264.7 macrophages; assay: MTT cytotoxicity assay; type: cell-based, Mus musculus; details: for cytotoxicity (MTT), broad screening / cytotoxicity (MTT) / concentration from which NET1 and NET2 displayed similar cytotoxicity: LPS-free; for cytotoxicity (MTT), broad screening: peptide 0.125-64 µg/mL; for cytotoxicity (MTT), broad screening / cytotoxicity (MTT): triplicates; for cytotoxicity (MTT): peptide concentrations up to 4 μg/mL; for concentration from which NET1 and NET2 displayed similar cytotoxicity: screening 64 to 0.125 µg/mL; for increase of toxicity compared to that in the absence of LPS: with LPS (1, 10, 100 ng/mL) versus without LPS
Protocol: The TIB-71 RAW 264.7 macrophage line, which was obtained from Mus musculus, was used in this study, and this cell line was supplied by ATCC (Manassas, VA, USA). The MTT Cell Proliferation Kit (Sigma–Aldrich, St. Louis, MO, USA), a colorimetric method, was used to evaluate the damage caused by the peptides in eukaryotic cells. TIB-71 RAW 264.7 macrophages were revived under appropriate culture conditions (37°C, 5% CO2) to prepare for the experiment. The final concentration of peptides ranged 0.125–64 μg/mL. Samples were examined in triplicates for each concentration. Cells incubated without peptide treatment under the same conditions were used as the control. Magainin 2 (Mag2), a known natural AMP with no cytotoxic effects, was used as a positive control. The results were obtained using a 96-well plate reader at 550 and 690 nm.

[2] = tested on: IFN-γ secretion from TIB-71 macrophages; assay: IFN-γ secretion by ELISA; type: cell-based, mouse
Protocol: Within the scope of the ELISA study, the effect of varying concentrations of the peptides we synthesized on the mouse macrophage cell line was examined. In this study, a cell line that was not treated with AMPs and LPS, a cell line treated only with AMPs, a cell line treated only with LPS, and a cell line treated with both LPS and AMPs were used. To find the changing TNF-α ratio after incubation, the kit named Mouse Tumor Necrosis Factor α ELISA Kit-RAB0477 (Sigma-Aldrich) was applied according to the protocol. Graphpad Prism (9.0.0) was utilized for performing a one-way ANOVA test (α = 0.05) for the statistical analysis. Similarly, ELISA was applied to measure the change in IFN-γ levels in response to the peptides and LPS. In this experiment, the Mouse IFN-γ ELISA Kit-E-EL-[…] was applied according to the specified kit protocol, and the results were evaluated.

[3] = tested on: TNF-α secretion from TIB-71 macrophages; assay: TNF-α secretion by ELISA; type: cell-based, mouse; details: for TNF-α response: peptide together with LPS (50 ng/mL), NET1 versus peptide only, NET2 at 2 or 4 µg/mL
Protocol: Within the scope of the ELISA study, the effect of varying concentrations of the peptides we synthesized on the mouse macrophage cell line was examined.
In this study, a cell line that was not treated with AMPs and LPS, a cell line treated only with AMPs, a cell line treated only with LPS, and a cell line treated with both LPS and AMPs were used. To find the changing TNF-α ratio after incubation, the kit named Mouse Tumor Necrosis Factor α ELISA Kit-RAB0477 (Sigma–Aldrich) was applied according to the protocol. Graphpad Prism (9.0.0) was utilized for performing a one-way ANOVA test (α = 0.05) for the statistical analysis.

[4] = tested on: IL-6 expression in TIB-71 macrophages; assay: IL-6 expression by western blotting; type: cell-based, mouse; details: for IL-6 expression: peptide alone, normalized to β-actin, versus unstimulated cells, repeated twice
Protocol: Protein was extracted from TIB-71 cells for use in western blotting. For this purpose, the supernatant of the cells grown in the appropriate environment was separated for ELISA, whereas protein was extracted from the cellular pellets. Protein obtained using the Protein Extraction Kit (Abcam, Cambridge, UK) was prepared for western blotting. The concentrations of protein samples were determined using the Pierce BCA protein assay kit (Thermo Fisher Scientific). The results were analyzed by reading them on a 96-well plate reader at 565 nm. IL-6 was separated by 12% (w/v) SDS-PAGE and transferred onto a PVDF membrane using the wet transfer technique to compare the expression levels of the markers. Proteins were measured using horseradish peroxidase (HRP)-based clarity western ECL substrate and read using ChemiDoc devices. The area of the bands obtained in the western blotting results was computed using Image Lab software. Specifically, the volume occupied by the bands on the membrane was determined, and the band volume of IL-6 was normalized to that of β-actin to assess protein expression in a semiquantitative manner. Microsoft Excel was used for the semiquantitative analysis. IL-6 secretion by mouse macrophages in response to AMP exposure was examined by GraphPad Prism 9.0.0 one-way ANOVA test (GraphPad, La Jolla, CA, USA).

[5] = peptide 0.5 µg/mL, response to decreasing LPS concentrations (1, 10, 100 ng/mL)
[6] = peptide 2 µg/mL, LPS 1, 10, 100 ng/mL
[7] = peptide 4 µg/mL, LPS 1, 10, 100 ng/mL
[8] = peptide together with LPS (50 ng/mL)

RLLLRLLRRLLRLLLR-NH2 [NET1, designed LL-37-like 16-amino acid antimicrobial peptide, …-NH2]
cytotoxicity (MTT), broad screening [1]: low cytotoxicity
cytotoxicity (MTT) [1]: did not cause significant cytotoxicity
concentration from which NET1 and NET2 displayed similar cytotoxicity [1]: 4000 ng/mL
cytotoxicity in the presence of LPS [1, 5]: decreased NET1 cytotoxicity
cytotoxicity in the presence of LPS ([1]; peptide 1 µg/mL, LPS 1, 10, 100 ng/mL): lower cytotoxicity
cytotoxicity in the presence of LPS [1, 6]: lower cytotoxicity than NET2
cytotoxicity in the presence of LPS [1, 7]: lowest toxicity
increase of toxicity compared to that in the absence of LPS ([1]; peptide 4 µg/mL): threefold
IFN-γ secretion [2, 8]: decrease IFN-γ expression
TNF-α response [3]: did not differ
IL-6 expression compared with the other groups ([4]; NET1 at the lowest concentration of 2 µg/mL): threefold lower
IL-6 expression ([4]; no LPS): decreased

RLLLRLLRRLLRLLLR-NH2 [NET2, designed LL-37-like 16-amino acid antimicrobial peptide, …-NH2]
cytotoxicity (MTT), broad screening [1]: low cytotoxicity; also recorded: lower toxicity than the other peptides
cytotoxicity (MTT) [1]: did not cause significant cytotoxicity
concentration from which NET1 and NET2 displayed similar cytotoxicity [1]: 4000 ng/mL
cytotoxicity in the presence of LPS [1, 5]: increased cytotoxicity
cytotoxicity in the presence of LPS [1, 6]: increased with as the LPS concentration decreased
cytotoxicity in the presence of LPS [1, 7]: increased as the LPS concentration decreased
increase of toxicity compared to that in the absence of LPS ([1]; peptide 4 µg/mL): tenfold
IFN-γ secretion ([2]; peptide alone, LPS-free medium, three concentrations, versus control, one-way ANOVA): lower IFN-γ expression than NET1; also recorded: significantly increased
IFN-γ secretion [2, 8]: significantly increased
TNF-α secretion ([3]; peptide alone, LPS-free medium): decreased with decreasing peptide concentrations
TNF-α response [3]: increased significantly
IL-6 expression lower than that in NET1-treated cells ([4]; NET2 used alone, no LPS): 50%
IL-6 expression in cells treated with LPS ([4]; peptide 8 µg/mL with LPS): anti-inflammatory effect
IL-6 expression in combination with LPS ([4]; peptide 2 and 4 µg/mL with LPS, versus the other groups): significantly increased
IL-6 expression ([4]; no LPS): reduced IL-6 expression
